What was measured:
Assay in all cases: relative viability (nuclei count vs DMSO), 5 days (fraction); higher = more cells survive
NCI-H441 = test system: NCI-H441
How it was run: (§1)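 Five library-drug doses in √10 steps were combined with a fixed anchor-drug dose, or a single drug was given alone, by pin tool to lung cancer cell lines in 1536-well plates the day after seeding. Nuclei were stained and counted after 5 days. Relative viability is the nuclei count in treated wells over that in vehicle wells, taken as the median of duplicate plates.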

NCI-H2405 = test system: NCI-H2405
How it was run: as §1

UMC-11 = test system: UMC-11
How it was run: as §1

H3255 = test system: H3255
How it was run: as §1

NCI-H596 = test system: NCI-H596
How it was run: as §1

NCI-H1437 = test system: NCI-H1437
How it was run: as §1

HCC-366 = test system: HCC-366
How it was run: as §1

LXF-289 = test system: LXF-289
How it was run: as §1

NCI-H3122 = test system: NCI-H3122
How it was run: as §1

NCI-H1915 = test system: NCI-H1915
How it was run: as §1

PC-14 = test system: PC-14
How it was run: as §1

HCC-15 = test system: HCC-15
How it was run: as §1

A-427 = test system: A-427
How it was run: as §1

NCI-H460 = test system: NCI-H460
How it was run: as §1

NCI-H2009 = test system: NCI-H2009
How it was run: as §1

NCI-H1755 = test system: NCI-H1755
How it was run: as §1

PC-3 [JPC-3] = test system: PC-3 [JPC-3]
How it was run: as §1

NCI-H650 = test system: NCI-H650
How it was run: as §1

SK-LU-1 = test system: SK-LU-1
How it was run: as §1

NCI-H2023 = test system: NCI-H2023
How it was run: as §1

NCI-H1975 = test system: NCI-H1975
How it was run: as §1

HARA = test system: HARA
How it was run: as §1

Structure (SMILES): O=C(O)CCCCC(CCSCc1ccccc1)SCc1ccccc1 (stereo not given) [CPI-613] + C[C@@H](Oc1cc(-c2cnn(C3CCNCC3)c2)cnc1N)c1c(Cl)ccc(F)c1Cl [Crizotinib] (partner 1 µM)
- relative viability (NCI-H441; first compound 5 µM): 0.685
- relative viability (NCI-H441; first compound 15.81 µM): 0.683
- relative viability (NCI-H441; first compound 50 µM): 0.635
- relative viability (NCI-H441; first compound 158.11 µM): 0.303
- relative viability (NCI-H441; first compound 500 µM): 0.343
- relative viability (NCI-H2405; first compound 5 µM): 0.855
- relative viability (NCI-H2405; first compound 15.81 µM): 0.842
- relative viability (NCI-H2405; first compound 50 µM): 0.825
- relative viability (NCI-H2405; first compound 158.11 µM): 0.828
- relative viability (NCI-H2405; first compound 500 µM): 0.829
- relative viability (UMC-11; first compound 5 µM): 0.578
- relative viability (UMC-11; first compound 15.81 µM): 0.668
- relative viability (UMC-11; first compound 50 µM): 0.696
- relative viability (UMC-11; first compound 158.11 µM): 0.298
- relative viability (UMC-11; first compound 500 µM): 0.0636
- relative viability (H3255; first compound 5 µM): 0.773
- relative viability (H3255; first compound 15.81 µM): 0.894
- relative viability (H3255; first compound 50 µM): 0.914
- relative viability (H3255; first compound 158.11 µM): 0.831
- relative viability (H3255; first compound 500 µM): 0.742
- relative viability (NCI-H596; first compound 5 µM): 0.959
- relative viability (NCI-H596; first compound 15.81 µM): 0.966
- relative viability (NCI-H596; first compound 50 µM): 1.1
- relative viability (NCI-H596; first compound 158.11 µM): 0.589
- relative viability (NCI-H596; first compound 500 µM): 0.0472
- relative viability (NCI-H1437; first compound 5 µM): 0.96
- relative viability (NCI-H1437; first compound 15.81 µM): 0.794
- relative viability (NCI-H1437; first compound 50 µM): 0.857
- relative viability (NCI-H1437; first compound 158.11 µM): 0.229
- relative viability (NCI-H1437; first compound 500 µM): 0.0274
- relative viability (HCC-366; first compound 5 µM): 0.533
- relative viability (HCC-366; first compound 15.81 µM): 0.483
- relative viability (HCC-366; first compound 50 µM): 0.381
- relative viability (HCC-366; first compound 158.11 µM): 0.331
- relative viability (HCC-366; first compound 500 µM): 0.0154
- relative viability (LXF-289; first compound 5 µM): 0.776
- relative viability (LXF-289; first compound 15.81 µM): 0.764
- relative viability (LXF-289; first compound 50 µM): 0.73
- relative viability (LXF-289; first compound 158.11 µM): 0.295
- relative viability (LXF-289; first compound 500 µM): 0.0479
- relative viability (NCI-H3122; first compound 5 µM): 0.234
- relative viability (NCI-H3122; first compound 15.81 µM): 0.261
- relative viability (NCI-H3122; first compound 50 µM): 0.281
- relative viability (NCI-H3122; first compound 158.11 µM): 0.247
- relative viability (NCI-H3122; first compound 500 µM): 0.0651
- relative viability (NCI-H1915; first compound 5 µM): 0.895
- relative viability (NCI-H1915; first compound 15.81 µM): 0.93
- relative viability (NCI-H1915; first compound 50 µM): 0.809
- relative viability (NCI-H1915; first compound 158.11 µM): 0.678
- relative viability (NCI-H1915; first compound 500 µM): 0.446
- relative viability (PC-14; first compound 5 µM): 0.871
- relative viability (PC-14; first compound 15.81 µM): 0.939
- relative viability (PC-14; first compound 50 µM): 0.799
- relative viability (PC-14; first compound 158.11 µM): 0.848
- relative viability (PC-14; first compound 500 µM): 0.33
- relative viability (HCC-15; first compound 5 µM): 0.772
- relative viability (HCC-15; first compound 15.81 µM): 0.746
- relative viability (HCC-15; first compound 50 µM): 0.776
- relative viability (HCC-15; first compound 158.11 µM): 0.367
- relative viability (HCC-15; first compound 500 µM): 0.326
- relative viability (A-427; first compound 5 µM): 0.89
- relative viability (A-427; first compound 15.81 µM): 0.885
- relative viability (A-427; first compound 50 µM): 0.754
- relative viability (A-427; first compound 158.11 µM): 0.175
- relative viability (A-427; first compound 500 µM): 0.126
- relative viability (NCI-H460; first compound 5 µM): 0.889
- relative viability (NCI-H460; first compound 15.81 µM): 0.892
- relative viability (NCI-H460; first compound 50 µM): 0.728
- relative viability (NCI-H460; first compound 158.11 µM): 0.115
- relative viability (NCI-H460; first compound 500 µM): 0.0085
- relative viability (NCI-H2009; first compound 5 µM): 1.1
- relative viability (NCI-H2009; first compound 15.81 µM): 1.01
- relative viability (NCI-H2009; first compound 50 µM): 1.04
- relative viability (NCI-H2009; first compound 158.11 µM): 0.462
- relative viability (NCI-H2009; first compound 500 µM): 0.0097
- relative viability (NCI-H1755; first compound 5 µM): 0.795
- relative viability (NCI-H1755; first compound 15.81 µM): 0.835
- relative viability (NCI-H1755; first compound 50 µM): 0.822
- relative viability (NCI-H1755; first compound 158.11 µM): 0.386
- relative viability (NCI-H1755; first compound 500 µM): 0.142
- relative viability (PC-3 [JPC-3]; first compound 5 µM): 0.977
- relative viability (PC-3 [JPC-3]; first compound 15.81 µM): 0.89
- relative viability (PC-3 [JPC-3]; first compound 50 µM): 0.889
- relative viability (PC-3 [JPC-3]; first compound 158.11 µM): 0.648
- relative viability (PC-3 [JPC-3]; first compound 500 µM): 0.324
- relative viability (NCI-H650; first compound 5 µM): 0.665
- relative viability (NCI-H650; first compound 15.81 µM): 0.703
- relative viability (NCI-H650; first compound 50 µM): 0.677
- relative viability (NCI-H650; first compound 158.11 µM): 0.626
- relative viability (NCI-H650; first compound 500 µM): 0.649
- relative viability (SK-LU-1; first compound 5 µM): 1.03
- relative viability (SK-LU-1; first compound 15.81 µM): 0.902
- relative viability (SK-LU-1; first compound 50 µM): 0.644
- relative viability (SK-LU-1; first compound 158.11 µM): 0.167
- relative viability (SK-LU-1; first compound 500 µM): 0.104
- relative viability (NCI-H2023; first compound 5 µM): 0.583
- relative viability (NCI-H2023; first compound 15.81 µM): 0.605
- relative viability (NCI-H2023; first compound 50 µM): 0.598
- relative viability (NCI-H2023; first compound 158.11 µM): 0.388
- relative viability (NCI-H2023; first compound 500 µM): 0.0057
- relative viability (NCI-H1975; first compound 5 µM): 0.931
- relative viability (NCI-H1975; first compound 15.81 µM): 0.982
- relative viability (NCI-H1975; first compound 50 µM): 0.945
- relative viability (NCI-H1975; first compound 158.11 µM): 0.499
- relative viability (NCI-H1975; first compound 500 µM): 0.0749
- relative viability (HARA; first compound 5 µM): 1.04
- relative viability (HARA; first compound 15.81 µM): 1.09
- relative viability (HARA; first compound 50 µM): 1.02
- relative viability (HARA; first compound 158.11 µM): 0.397
- relative viability (HARA; first compound 500 µM): 0.247
